Data published in US7795213B2 (POSCO, priority 2002, dated 2010).

How the values were obtained:
Aβ1-40 [1] = biological target: T1, Aβ1-40 (Homo sapiens, UniProt P05067); test: Effect of VEGF on the aggregation rate of Aβ, FITC-Aβ1-40 fluorescence in pellet; type: biochemical; conditions: VEGF 1 μM; 50 μM and 100 μM Aβ1-40; 37° C.
T1 construct: Aβ1-40, Aβ1-42, and Aβ40-1 (BACHEM, Bubendorf, Switzerland) were immobilized on a CM5 sensor chip; purchased BACHEM

Aβ40-1 [2] = test system: Aβ40-1
Protocol: (§1) Aβ1-40, Aβ1-42, and Aβ40-1 (BACHEM, Bubendorf, Switzerland) were immobilized on a CM5 sensor chip (BIAcore AB, Uppsala, Sweden) with an amine coupling kit. Alpha2-macroglobulin, alpha1-antichymotrypsin, serum amyloid P component, apolipoprotein E4, and VEGF165 (100 nM) were allowed to bind to the immobilized Aβ at a flow rate of 10 μl/min and sensorgrams were recorded in real time.

immobilized Aβ aggregate = biological target: T2, immobilized Aβ aggregate (Homo sapiens, UniProt P05067); test: In vitro VEGF trapping on immobilized Aβ aggregate; type: binding; conditions: 50 μM Aβ aggregated 24 hours and dried on well; radiolabeled VEGF; no inhibitor
T2 construct: Aβ (Aβ) is the major component of senile plaques and is derived from the amyloid precursor protein by proteolytic cleavage
Protocol: The system is simulating VEGF trapping on Aβ plaques under in vitro condition. In the in vitro assay system, 50 μM of Aβ was aggregated at 37° C. for 24 hours and immobilized on the bottom of a well by drying under air for overnight, and then, VEGF labeled with a radioisotope was added to the well, to form VEGF-Aβ binding. After removing unbound VEGF, bound VEGF was determined by measuring radioactivity. […] If certain chemical has inhibitory activity against VEGF-Aβ binding, then the chemical will decrease the amount of VEGF trapped on immobilized Aβ aggregate.

Aβ40-1 [3] = conditions: 100 μM Aβ40-1, 1 nM 125I-VEGF165, 37° C., 2 days; P=0.0076
Protocol: (§2) The aggregation of Aβ1-40 was determined as described with some modifications (Chang et al., Brain Res Brain Res Protoc 2000;6(1-2):6-12). After a two day incubation of Aβ1-40 (100 μM) with FITC-conjugated Aβ1-40 (1 μM) in 50 mM MES, pH 5.8, at 37° C., the mixture was centrifuged, and fluorescence in the pellet was measured. […] Then the mixtures were centrifuged and radioactivity in pellet was determined in a gamma-counter. […] The radioactivity in the pellet was determined.

Aβ1-40 [4] = biological target: T1, Aβ1-40; test: 125I-VEGF competition binding to immobilized Aβ peptide in microtiter wells; conditions: read-out: dissociation constant (KD) of VEGF for Aβ; immobilized Aβ1-40; 50 pM 125I-VEGF with increasing unlabeled VEGF; KD=IC50-[125I-VEGF]
Aβ1-40 [5] = biological target: T1, Aβ1-40; test: Co-aggregation assay of 125I-VEGF165 with Aβ, radioactivity in pellet; type: binding; conditions: 100 μM Aβ1-40, 1 nM 125I-VEGF165, 37° C., 2 days; approximately 60% of Aβ alone in pellet
Protocol: as §2

[6] = Keyt et al., J. Biol. Chem. 1996; cited from earlier work
Aβ1-42 [7] = biological target: T3, Aβ1-42 (Homo sapiens, UniProt P05067); test: Surface plasmon resonance binding to Aβ peptide on CM5 sensor chip; conditions: 100 nM protein; versus alpha2-macroglobulin, alpha1-antichymotrypsin, serum amyloid P component, apolipoprotein E4
T3 construct: Aβ1-40, Aβ1-42, and Aβ40-1 (BACHEM, Bubendorf, Switzerland) were immobilized on a CM5 sensor chip; purchased BACHEM
Protocol: as §1

Aβ1-40 [8] = biological target: T1, Aβ1-40; test: as above; conditions: 100 nM protein; versus alpha2-macroglobulin, alpha1-antichymotrypsin, serum amyloid P component, apolipoprotein E4
Protocol: as §1

Aβ1-42 [9] = biological target: T3, Aβ1-42; test: Thioflavin T assay of Aβ aggregation; type: biochemical; conditions: 50 μM Aβ1-42, 37° C., 24 hours; VEGF or GST-HBD at various concentrations
Protocol: 10 μM of thioflavin T was added to the mixture and sufficiently mixed. Then, the fluorescence of the mixture was measured at Ex=444 nm and Em=485 nm, and then, compared with that of control of Aβ incubated alone, to determine the affection on aggregation of Aβ.
50 μM Aβ was incubated at 37° C. for 24 hours together with triamterene of 0 μM, 4 μM, 20 μM or 100 μM, respectively, to generate aggregation of Aβ. Then, the degree of aggregation was determined by the thioflavin T assay as illustrated in Example 11.

pre-aggregated Aβ1-40 = biological target: T4, pre-aggregated Aβ1-40 (Homo sapiens, UniProt P05067); test: Binding of 125I-VEGF to pre-aggregated Aβ, immediate centrifugation; conditions: 50 μM Aβ preincubated for 2 days, 1 nM 125I-VEGF, immediately centrifuged
T4 construct: Aβ1-40, Aβ1-42, and Aβ40-1 (BACHEM, Bubendorf, Switzerland) were immobilized on a CM5 sensor chip; purchased BACHEM
Protocol: as §2

Aβ/VEGF co-aggregate = biological target: T5, Aβ/VEGF co-aggregate (Homo sapiens, UniProt P05067); test: Dissociation assay of VEGF from Aβ/VEGF co-aggregate; type: binding; conditions: after 3 days; 50 mM MES, pH 5.8
T5 construct: purchased BACHEM (Aβ peptides); Amersham Pharmacia Biotech (125I-VEGF)
Protocol: The radioactivity in the supernate was determined. […] The mixtures were separated by SDS-PAGE (10%) and autoradiographed.

Aβ = biological target: T6, Aβ (Homo sapiens, UniProt P05067); test: Binding of growth factors to Aβ; conditions: among NGF, bFGF, PDGF, VEGF and midkine
T6 construct: Aβ (Aβ) is the major component of senile plaques and is derived from the amyloid precursor protein by proteolytic cleavage

PC12 cells = test: DCF fluorescence, generation of reactive oxygen species by Aβ; type: cell-based; conditions: PC12 cells 3 hours
Protocol: 5 μM VEGF165 or 5 μM GST-HBD and 5 μM Aβ1-42 were mixed and incubated at 37° C. for 24 hours. The mixture was added to PC12 cells (6×10^4, cells/well, kindly provided by Dr. Pann-Ghill Suh), and then left for reaction at 37° C. for 3 hours. Then, 100 μM of DCF solution was added to the resulted mixture, reacted for 30 minutes, and then washed with PBS (phosphate-buffered saline). The obtained cells were observed through a fluorescent microscope, and DCF fluorescence was measured, to calculate the level of generation of the reactive oxygen species.

Chain of Aβ40-1 (as listed by the source): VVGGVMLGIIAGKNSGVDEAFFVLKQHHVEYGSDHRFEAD

VEGF
influence of VEGF on the aggregation of Aβ1-40 (time course) (Aβ1-40 [1]): no significant influence | binding to Aβ40-1 (reverse peptide) (Aβ40-1 [2]): did not bind | VEGF trapping into Aβ, share of VEGF added (immobilized Aβ aggregate): about 70% | sedimentation of VEGF in presence of Aβ40-1 (Aβ40-1 [3]): did not cause extensive sedimentation of VEGF | Kd (Aβ1-40 [4]): ~0.05 nM | proportion of 125I-VEGF in the pellet after incubation with Aβ1-40 (Aβ1-40 [5]): About the same proportion | bioactivity relative to VEGF121 [6]: 100 fold | binding to immobilized Aβ1-42 (surface plasmon resonance) (Aβ1-42 [7]): much more strongly than other molecules that are known to bind to Aβs | binding to immobilized Aβ1-40 (surface plasmon resonance) (Aβ1-40 [8]): much more strongly than other molecules that are known to bind to Aβs | inhibition of aggregation of Aβ (thioflavin T) (Aβ1-42 [9]): inhibit aggregation of Aβ depending on the concentration | binding of VEGF to pre-aggregated Aβ (pelleted by centrifugation) (pre-aggregated Aβ1-40): bound to pre-aggregated Aβ | VEGF released from the Aβ/VEGF complex (Aβ/VEGF co-aggregate): less than 1.5% | binding of growth factor to Aβ (Aβ): bound to A | generation of the reactive oxygen species, treatment alone (PC12 cells; 5 μM VEGF165 or 5 μM GST-HBD alone): no effect on the generation of the reactive oxygen species | generation of the reactive oxygen species by Aβ, treatment together with Aβ (PC12 cells; 5 μM VEGF165 or 5 μM GST-HBD with 5 μM Aβ1-42): inhibitory effect on the generation of the reactive oxygen species by Aβ
